Assay results as given in PubChem BioAssay (NCI).
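At the GI50, growth is halved. TGI is the concentration that stops growth completely.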

Assays:
Assay in all cases: NCI tumour cell line growth inhibition, 384-well format
NCI-H23 lung = tested on: NCI-H23 lung
NCI-H322M lung = tested on: NCI-H322M lung
NCI-H460 NSCLC = tested on: NCI-H460 NSCLC
NCI-H522 lung = tested on: NCI-H522 lung
NCI/ADR-RES ovarian = tested on: NCI/ADR-RES ovarian
OVCAR-3 ovarian = tested on: OVCAR-3 ovarian
OVCAR-4 ovarian = tested on: OVCAR-4 ovarian
OVCAR-5 ovarian = tested on: OVCAR-5 ovarian
OVCAR-8 ovarian = tested on: OVCAR-8 ovarian
PC-3 prostate = tested on: PC-3 prostate
RPMI-8226 leukemia = tested on: RPMI-8226 leukemia
RXF 393 renal = tested on: RXF 393 renal
SF-268 CNS = tested on: SF-268 CNS
SF-295 CNS = tested on: SF-295 CNS
SF-539 CNS = tested on: SF-539 CNS
SK-MEL-28 melanoma = tested on: SK-MEL-28 melanoma
SK-MEL-5 melanoma = tested on: SK-MEL-5 melanoma
SK-OV-3 ovarian = tested on: SK-OV-3 ovarian
SN12C renal = tested on: SN12C renal
SNB-19 CNS = tested on: SNB-19 CNS
SNB-75 CNS = tested on: SNB-75 CNS
SR leukemia = tested on: SR leukemia
SW-620 colon = tested on: SW-620 colon
T-47D breast = tested on: T-47D breast
TK-10 renal = tested on: TK-10 renal
U251 glioblastoma = tested on: U251 glioblastoma
UACC-257 melanoma = tested on: UACC-257 melanoma
UACC-62 melanoma = tested on: UACC-62 melanoma
UO-31 renal = tested on: UO-31 renal

Work on `C=CC(=O)N1CCC([C@@H]2CCNc3c(C(N)=O)c(-c4ccc(Oc5ccccc5)cc4)nn32)CC1` yielded a GI50 (NCI-H23 lung) of 16.8 µM, a TGI (NCI-H23 lung) of 31.6 µM and a GI50 (NCI-H322M lung) of 2.53 µM. The TGI (NCI-H322M lung) was 15 µM, the GI50 (NCI-H460 NSCLC) was 25.2 µM and the TGI (NCI-H460 NSCLC) was over 61.8 µM. For the same molecule, the GI50 (NCI-H522 lung) was 3.46 µM, the TGI (NCI-H522 lung) was 12.1 µM and the GI50 (NCI/ADR-RES ovarian) was 16.9 µM. It also gave a TGI (NCI/ADR-RES ovarian) of 36.5 µM, a GI50 (OVCAR-3 ovarian) of 9.13 µM and a TGI (OVCAR-3 ovarian) of 25.6 µM. It also gave a GI50 (OVCAR-4 ovarian) of 15.5 µM, a TGI (OVCAR-4 ovarian) of 45.9 µM and a GI50 (OVCAR-5 ovarian) of 48.2 µM. It also gave a TGI (OVCAR-5 ovarian) of over 100 µM, a GI50 (OVCAR-8 ovarian) of 17.2 µM and a TGI (OVCAR-8 ovarian) of 36.1 µM. The GI50 (PC-3 prostate) was 31.6 µM, the TGI (PC-3 prostate) was over 86 µM and the GI50 (RPMI-8226 leukemia) was 16.3 µM. For the same molecule, the TGI (RPMI-8226 leukemia) was 30.7 µM, the GI50 (RXF 393 renal) was 7.6 µM and the TGI (RXF 393 renal) was 20.2 µM. It also gave a GI50 (SF-268 CNS) of 15.4 µM, a TGI (SF-268 CNS) of 40.6 µM and a GI50 (SF-295 CNS) of 28.5 µM. The TGI (SF-295 CNS) was over 80.2 µM, the GI50 (SF-539 CNS) was 17.8 µM and the TGI (SF-539 CNS) was 35.7 µM. It also gave a GI50 (SK-MEL-28 melanoma) of 18 µM, a TGI (SK-MEL-28 melanoma) of 33.6 µM and a GI50 (SK-MEL-5 melanoma) of 15.6 µM. It also gave a TGI (SK-MEL-5 melanoma) of 30 µM, a GI50 (SK-OV-3 ovarian) of 14.2 µM and a TGI (SK-OV-3 ovarian) of over 69.8 µM. It also gave a GI50 (SN12C renal) of 17.6 µM, a TGI (SN12C renal) of 55 µM and a GI50 (SNB-19 CNS) of 20 µM. For the same molecule, the TGI (SNB-19 CNS) was 51 µM, the GI50 (SNB-75 CNS) was 17.4 µM and the TGI (SNB-75 CNS) was 50.6 µM. The GI50 (SR leukemia) was 14.2 µM, the TGI (SR leukemia) was 27.6 µM and the GI50 (SW-620 colon) was 18.7 µM. It also gave a TGI (SW-620 colon) of 36.5 µM, a GI50 (T-47D breast) of 7.05 µM and a TGI (T-47D breast) of over 77.2 µM. For the same molecule, the GI50 (TK-10 renal) was 5.89 µM, the TGI (TK-10 renal) was 27.3 µM and the GI50 (U251 glioblastoma) was 19.4 µM. The TGI (U251 glioblastoma) was 40.7 µM, the GI50 (UACC-257 melanoma) was 17.8 µM and the TGI (UACC-257 melanoma) was 35.3 µM. The GI50 (UACC-62 melanoma) was 16.7 µM, the TGI (UACC-62 melanoma) was 34 µM and the GI50 (UO-31 renal) was 12.1 µM. The TGI (UO-31 renal) was over 80.8 µM.
